Results on one substance are retold here after patent US7368434B2, “Compounds useful for the inhibition of ALDH” (The Endowment for Research in Human Biology, Inc., priority 2002, dated 2008).

Like-named read-outs stand apart in the source and are kept apart here.

Data set [1] has as its system rats. The conditions noted are these: cited from earlier work.
The test system of data set [2] is ethanol-preferring Syrian golden hamsters. To be noted: cited from earlier work.
Data set [3] in a line: Urine [5-HTOL]/[5-HIAA] ratio after daidzin administration. The data set is classed as in vivo. To be noted: dose that would suppress hamster ethanol intake by about 50%.
Data set [4] has as its system isolated hamster liver mitochondria. The conditions noted are these: cited from earlier work.
For data set [5], the system named is golden hamsters. Put plainly: Ethanol drinking experiments, two-bottle choice. The conditions noted are these: 0.07 mmol/day/hamster for 5 consecutive days. The class given is in vivo. Here is the method:
Effects of the newly synthesized analogs on hamster ethanol intake were determined according to the method described below. Animals were male adult golden hamsters (outbred, Lakeview Lak: LVG[SYR]), purchased from Charles River Laboratories, Wilmington, Mass. 01887 or Harlan Sprague Dawley, Inc., Indianapolis, Ind. 46229. Upon arrival, hamsters were housed in a room maintained at 23° C., 35-45% humidity, with a 12/12 hr light/dark cycle (light on 0600-1800 hr), ad libitum access to Purina Chow (5001) and a 15% v/v ethanol solution. After a week, each hamster was transferred to an individual stainless steel cage (26×18×17.5 cm). Two 50 ml drinking bottles, one containing water and the other a 15% ethanol solution, were provided continuously. The bottles were placed in holders equipped with tilted platforms which direct spillage to tubes placed outside of the cages. The positions of the two drinking bottles on each cage were altered daily to prevent development of positional preference. Fluid intake was measured at 0900 hr each day. Hamsters that drank significant (>8 ml/day) and consistent (daily variance <±20%) amounts of ethanol solution were selected for testing. To establish baseline ethanol and water intake, 1 ml sterile saline was administered daily to each hamster between 1500-1600 hr for 6 days (saline control period, Day 1 to Day 6). A daily dose of 0.07 mmol of test compound was then administered for 5 consecutive days (treatment period, Day 7 to Day 11). After the last dose, ethanol and water intake were monitored for another 6 days (post treatment period, Day 12 to Day 17). […] At an equivalent dose, daidzin suppressed ethanol intake by about 55% (Table 1).

The subject of data set [6] is Syrian golden hamsters (Meso cricetus auratus). Put plainly: Oral potency: compound mixed in chow, two-bottle free-choice ethanol intake. The class given is in vivo. To be noted: oral in chow, similar manner and equivalent dose range. Here is the method: The oral potency of hexzein (7-O-ω-carboxypentyldaidzein) in reducing ethanol intake in Syrian golden hamsters (Meso cricetus auratus) was examined under a two-bottle free-choice protocol. Hexzein was mixed with Purina rodent meal (5755M) at 0 mg: 1 g (control), 2 mg: 1 g, 4 mg: 1 g, and 5 mg: 1 g ratios and the mixtures were pressed into 1×1×0.5 inch pellets. Food pellets, ethanol solution and water were provided continuously throughout the study and their intake were measured every day at 5 pm. Hexzein given in this manner did reduce ethanol intake. Ethanol intake in hamsters on 2 mg/g, 4 mg/g, and 5 mg/g hexzein-Chow were reduced by 18.3±3.8%, 47.8±7.4% and 56.5±5.4%, respectively.

The subject of data set [7] is isolated rat liver mitochondria. To be noted: cited from earlier work.
In data set [8] the test system is 5-HT metabolism in hamster liver slices. Put plainly: 5-HT metabolism catalyzed by hamster liver slices. The class given is cell-based. The source says:
(§1) The effects of daidzin on monoamine metabolism were studied in hamster and rat liver and brain using tissue slices using 5-HT as the substrate. The effects of ethanol drinking on 5-HT metabolism in hamster liver and brain were examined. Freshly removed tissues were cut into small pieces (about 1 mm cubes) with a tissue-slicer, suspended in ice-cold phosphate buffered saline (PBS) (0.1 g/ml), and forced through a mesh 40 stainless steel screen mounted on a Millipore Swinnex Filter Holder. The minced tissues were allowed to sediment on ice before PBS was removed using a Pasteur pipette. The tissue slices were washed 5 more times each with 10 volumes of ice-cold PBS. After the final wash, tissues were suspended in 1 volume of PBS and dispensed using a micro-pipette with tips of i.d.=2 mm. 5-HT metabolism catalyzed by the tissue slices was assayed in a 1 ml assay medium containing PBS, 1 μM 5-HT, 100:1 tissue slices, and specified concentrations of daidzin or ethanol. Reactions were initiated by the addition of tissues and allowed to proceed for 30 min at 37° C. in a shaking water bath. Reactions were terminated by addition of 0.1 ml ice-cold 1 M HClO4, and 10 mM EDTA. Samples were kept on ice for 30 min and centrifuged to obtained clear supernatants. Contents of 5-HT, 5-HIAL, 5-HTOL and 5-HIAA in the supernatants were analyzed by HPLC as described before (Rooke et al. (2000) J. Med. Chem. 43:4169).

Data set [9] in a line: Tissue distribution study, liver of hamsters on compound-Chow. The class given is in vivo, hamster. The conditions noted are these: hamsters on compound-Chow.
The subject of data set [10] is 5-HT metabolism in brain slices. Put plainly: 5-HT metabolism in hamster brain slices. The class given is cell-based.
Description: as §1, with “Samples were kept on ice for 30 min and centrifuged to obtained clear supernatants.” left out

The test system of data set [11] is 5-HT metabolism in rat liver slices. Put plainly: 5-HT metabolism catalyzed by rat liver slices. The class given is cell-based.
Description: as §1

Data set [12] relates to 5-HT metabolism in brain slices. Put plainly: 5-HT metabolism in rat brain slices. The data set is classed as cell-based.
Description: as §1, with “Samples were kept on ice for 30 min and centrifuged to obtained clear supernatants.” left out

For the substance Daidzin [Analog 42], the figures for the “Ethanol intake (in words)” value in data set [1], in [2] (administered orally) and in data set [2] (ethanol-preferring Syrian golden hamsters) were “selectively suppress ethanol intake”, “does not affect hamster ethanol intake” and “selectively suppress ethanol intake”, respectively. In [3], the “urine [5-HTOL]/[5-HIAA] ratio” value is “increased urine [5-HTOL]/[5-HIAA] ratio”. The “Conversion of 5-HT and DA into 5-HIAA and DOPAC” value in [4] and in [7] was “inhibits the conversion of monoamines” each time. In addition, the “EtOH intake suppression, %” value in data set [5] is given as “about 55%”. Also, the “Effect on ethanol intake (in words)” value in data set [6] is given as “failed to reduce ethanol intake”. Besides, the 5-HT depletion result in data set [8] and in data set [11] was “not 5-HT depletion” in each case. For the same substance, the 5-HTOL formation entry in data set [8] and in data set [11] was “increases in the formation of 5-HTOL” in each case. Also, the 5-HIAA formation entry is “inhibited 5-HIAA formation” in [8] (1 μM 5-HT, 30 min at 37° C.) and “inhibited 5-HIAA formation” in data set [11] (1 μM 5-HT, 30 min at 37° C.). Besides, the “Concentration found in the liver (in words)” value in [9] was “no daidzin could be detected”. The “Effect on 5-HT metabolism (in words)” value in [10] and in [12] was “did not effect 5-HT metabolism” in each case.
